{"source": "paper PMC3004257", "about": "“Purine nucleoside phosphorylase from Schistosoma mansoni in complex with ribose-1-phosphate” (Journal of Synchrotron Radiation, 2010)", "key": {"[1]": {"molecular_target": "T1, SmPNP (Schistosoma mansoni purine nucleoside phosphorylase) (Schistosoma mansoni, UniProt Q9BMI9)", "T1 construct": "low-molecular-mass homotrimer", "T1 sequence (Q9BMI9 1-287)": "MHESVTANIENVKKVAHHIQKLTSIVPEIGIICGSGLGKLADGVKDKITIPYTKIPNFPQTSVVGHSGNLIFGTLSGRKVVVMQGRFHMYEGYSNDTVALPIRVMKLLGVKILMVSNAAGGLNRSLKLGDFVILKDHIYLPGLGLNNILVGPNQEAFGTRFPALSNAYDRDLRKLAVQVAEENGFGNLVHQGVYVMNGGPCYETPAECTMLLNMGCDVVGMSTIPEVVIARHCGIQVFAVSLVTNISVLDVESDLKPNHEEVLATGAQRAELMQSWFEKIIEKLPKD", "assay": "X-ray crystallography, crystal soaking", "settings": "soaking aimed at ternary complex with R1P; base binding site"}, "[2]": {"molecular_target": "T1, SmPNP (Schistosoma mansoni purine nucleoside phosphorylase)", "assay": "X-ray crystallography, crystal soaking, […] Å", "type": "binding", "settings": "5 mM R1P soak up to 48 h, 20% PEG 1500, 15 mM sodium acetate pH 4.9 or 5.0, 20% glycerol; phosphate and ribose sites of all three subunits; acetate in base site"}}, "data": [{"molecule": "O=c1[nH]cnc2nc[nH]c12", "note": "[hypoxanthine]", "values": [{"measurement": "X-ray crystallography, crystal soaking", "setting": "[1]", "result": "by soaking were unsuccessful, SmPNP–hypoxanthine complexes being obtained instead"}]}, {"molecule": "O=P(O)(O)O[C@H]1O[C@H](CO)[C@@H](O)[C@H]1O", "note": "[ribose-1-phosphate]", "values": [{"measurement": "X-ray crystallography, crystal soaking, 2.0 Å", "setting": "[2]", "result": "we have been able to obtain the elusive binary complex of SmPNP with R1P"}]}]}
